Measurements published in patent US20220235011A1, “PHTHALAZINONE COMPOUNDS AND USE THEREOF” (ST PHARM CO., LTD., priority 2019, published 2022).

Target: T1, Sirt6 (Homo sapiens, UniProt Q8N6T7)
T1 construct: purchased CycLex CY-1156V2
Assay: Measurement of Sirt6 Activity (CycLex Sirt6 Deacetylase Fluorometric Assay Kit)
Format: biochemical
Details: compound at 10 μM, fluorescence relative to the group without compound treatment (positive control group)
Method in brief: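 Recombinant Sirt6 with fluoro-labelled acetyl-lysine peptide, NAD and lysylendopeptidase developer, compound added from 10× stock in PBS; 1 h at room temperature. Fluorescence read at ex 490/em 530 nm; activation expressed as fluorescence ratio relative to enzyme without compound.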

T1 sequence (Q8N6T7 whole entry): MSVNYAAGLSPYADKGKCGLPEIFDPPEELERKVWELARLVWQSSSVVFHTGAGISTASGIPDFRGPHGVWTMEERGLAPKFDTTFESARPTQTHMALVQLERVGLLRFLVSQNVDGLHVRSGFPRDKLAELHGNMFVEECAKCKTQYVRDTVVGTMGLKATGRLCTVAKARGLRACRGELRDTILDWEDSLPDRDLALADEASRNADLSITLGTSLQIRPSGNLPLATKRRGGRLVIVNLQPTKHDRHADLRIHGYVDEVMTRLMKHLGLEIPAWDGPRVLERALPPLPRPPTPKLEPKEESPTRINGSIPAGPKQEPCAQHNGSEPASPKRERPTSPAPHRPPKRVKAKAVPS

Compound	Sirt6 Activity (% activity, 10 μM)	Sirt6 Activity (% activity, 10 μM) (10 µM)
CC(C)(C)/[N+]([O-])=C/c1cccc(-c2nn(-c3cccc(F)c3)c(=O)c3ccccc23)c1 [Example 29, (Z)—N-tert-Butyl-1-(3-(3-(3-fluorophenyl)-4-oxo-3,4-dihydrophthalazin-1-yl)phenyl)methanimine Oxide]	162 % activity	
CN(c1cccc(-c2nn(-c3ccc(F)cc3)c(=O)c3ccccc23)c1)S(C)(=O)=O [Example 69, N-(3-(3-(4-Fluorophenyl)-4-oxo-3,4-dihydrophthalazin-1-yl)phenyl)-N-methylmethane Sulfonamide]	209 % activity	
O=C(O)C1(c2cccc(-c3nn(-c4ccc(F)cc4F)c(=O)c4ccccc34)c2)CCC1 [Example 207, 1-(3-(3-(2,4-Difluorophenyl)-4-oxo-3,4-dihydrophthalazin-1-yl)phenyl)cyclobutane-1-carboxylic Acid]	309.90 % activity	
CS(=O)(=O)Nc1cccc(-c2nn(-c3ccc(F)cc3)c(=O)c3ccccc23)c1 [Example 10, N-(3-(3-(4-Fluorophenyl)-4-oxo-3,4-dihydrophthalazin-1-yl)phenyl)methanesulfonamide]	198 % activity	
O=c1c2ccccc2c(-c2cccnc2)nn1-c1c(F)cccc1F [Example 116, 2-(2,6-Difluorophenyl)-4-(pyridin-3-yl)phthalazin-1(2H)-one]	227 % activity	
CCS(=O)(=O)Nc1cccc(-c2nn(C3CCC(F)(F)CC3)c(=O)c3ccccc23)c1 [Example 140, N-(3-(3-(4,4-Difluorocyclohexyl)-4-oxo-3,4-dihydrophthalazin-1-yl)phenyl)ethanesulfonamide]	134.41 % activity	
O=C1CCCCN(c2nn(-c3ccc(F)cc3F)c(=O)c3ccccc23)C1 [Example 193, 2-(2,4-Difluorophenyl)-4-(3-oxoazepan-1-yl)phthalazin-1 (2H)-one]	206.10 % activity	
CCS(=O)(=O)c1cccc(-c2nn(-c3ccc(F)cc3F)c(=O)c3ccc(F)cc23)c1 [Example 123, 2-(2,4-Difluorophenyl)-4-(3-(ethylsulfonyl)phenyl)-6-fluorophthalazin-1(2H)-one]	253 % activity	
CN(c1cccc(-c2nn(-c3ccc(F)cc3)c(=O)c3ccccc23)c1)S(=O)(=O)C1CC1 [Example 74, N-(3-(3-(4-Fluorophenyl)-4-oxo-3,4-dihydrophthalazin-1-yl)phenyl)-N-methylcyclopropane Sulfonamide]	128 % activity	
Cl.N[C@@H]1CCCCN(c2nn(C3CCCCC3)c(=O)c3ccccc23)C1 [Example 159, (R)-4-(3-Aminoazepan-1-yl)-2-cyclohexyl phthalazin-1(2H)-one-hydrochloride]	398.8 % activity	
O=C(O)C1(C2CCCN(c3nn(-c4ccc(F)cc4F)c(=O)c4ccccc34)C2)CC1 (stereo not drawn) [Example 213-1, 1-(1-(3-(2,4-Difluorophenyl)-4-oxo-3,4-dihydrophthalazin-1-yl)piperidin-3-yl)cyclopropan-1-carboxylic Acid]		168.10 % activity
C/[N+]([O-])=C/c1cccc(-c2nn(-c3cccc(F)c3)c(=O)c3ccccc23)c1 [Example 27, (Z)-1-(3-(3-(3-Fluorophenyl)-4-oxo-3,4-dihydrophthalazin-1-yl)phenyl)-N-methylmethanimine Oxide]	148 % activity	
CC(C)(C)/[N+]([O-])=C/c1cccc(-c2nn(-c3ccc(F)c(Cl)c3)c(=O)c3ccccc23)c1 [Example 34, (Z)—N-tert-Butyl-1-(3-(3-(3-chloro-4-fluorophenyl)-4-oxo-3,4-dihydrophthalazin-1-yl)phenyl) Methanimine Oxide]	176 % activity	
O=c1c2ccccc2c(-c2ccc(F)c(/C=[N+](\[O-])Cc3ccccc3)c2)nn1-c1ccc(F)cc1 [Example 54, (Z)—N-Benzyl-1-(2-fluoro-5-(3-(4-fluorophenyl)-4-oxo-3,4-dihydrophthalazin-1-yl)phenyl) Methanimine Oxide]	161 % activity	
CC(C)(C)/[N+]([O-])=C/c1ccc(F)c(-c2nn(-c3ccc(F)cc3)c(=O)c3ccccc23)c1 [Example 57, (Z)—N-tert-Butyl-1-(4-fluoro-3-(3-(4-fluorophenyl)-4-oxo-3,4-dihydrophthalazin-1-yl)phenyl) Methanimine Oxide]	149 % activity	
CC(C)/[N+]([O-])=C/c1ccc(-c2nn(-c3ccc(F)cc3)c(=O)c3ccccc23)s1 [Example 46, (Z)-1-(5-(3-(4-Fluorophenyl)-4-oxo-3,4-dihydrophthalazin-1-yl)thiophen-2-yl)-N-isopropylmethanimine Oxide]	154 % activity	
CC(C)(CN)c1cccc(-c2nn(-c3ccc(F)cc3F)c(=O)c3ccccc23)c1.Cl [Example 204, 4-(3-(1-Amino-2-methylpropan-2-yl)phenyl)-2-(2,4-difluorophenyl)phthalazin-1(2H)-one-hydro Chloride]	161.50 % activity	
O=c1c2ccccc2c(-c2cccc(/C=[N+](\[O-])Cc3ccccc3)c2)nn1-c1ccccc1 [Example 35, (Z)—N-Benzyl-1-(3-(4-oxo-3-phenyl-3,4-dihydrophthalazin-1-yl)phenyl)methanimine Oxide]	113 % activity	
CNS(=O)(=O)c1cccc(-c2nn(-c3ccc(F)cc3)c(=O)c3ccccc23)c1 [Example 86, 3-(3-(4-Fluorophenyl)-4-oxo-3,4-dihydrophthalazin-1-yl)-N-methylbenzenesulfonamide]	196 % activity	
CCS(=O)(=O)N(C)c1cccc(-c2nn(-c3ccc(C(F)(F)F)cc3)c(=O)c3ccccc23)c1 [Example 5, N-Methyl-N-(3-(4-oxo-3-(4-(trifluoromethyl)phenyl)-3,4-dihydrophthalazin-1-yl)phenyl)ethanesulfonamide]	105 % activity	
CCS(=O)(=O)Nc1cccc(-c2nn(-c3ccc(F)cc3F)c(=O)c3ccccc23)c1 [Example 25, N-(3-(3-(2,4-Difluorophenyl)-4-oxo-3,4-dihydrophthalazin-1-yl)phenyl)ethanesulfonamide]	147 % activity	
CCS(=O)(=O)N[C@@H]1CCCN(c2nn(-c3ccc(F)cc3)c(=O)c3ccccc23)C1 [Example 139, (R)—N-(1-(3-(4-Fluorophenyl)-4-oxo-3,4-dihydrophthalazin-1-yl)piperidin-3-yl)ethanesulfonamide]	130.07 % activity	
CN(C)S(=O)(=O)c1cccc(-c2nn(-c3ccc(F)cc3F)c(=O)c3ccccc23)c1 [Example 93, 3-(3-(2,4-Difluorophenyl)-4-oxo-3,4-dihydrophthalazin-1-yl)-N,N-dimethylbenzene Sulfonamide]	227 % activity	
Cl.N[C@H]1CCCCN(c2nn(C3CCCCC3)c(=O)c3ccccc23)C1 [Example 155, (S)-4-(3-Aminoazepan-1-yl)-2-cyclohexyl phthalazin-1(2H)-one-hydrochloride]	230.9 % activity	
